According to patent US20230080054A1 (ILDONG PHARMACEUTICAL CO., LTD., priority 2021, published 2023):

Columns and labels:
[1] = target: T1, human ANO6 (Homo sapiens, UniProt Q4KMQ2); assay: LACT C2 assay (phosphatidylserine scramblase function assay); format: cell-based; details: FRT cells expressing human ANO6, 10 μM ionomycin; for inhibition at 0.1 µM: test compound 100 nM, read-out: Inhibition Level 100 nM; for inhibition at 1 µM: test compound 1 μM, read-out: Inhibition Level 1 μM
T1 construct: expressed in transfected cells
T1 sequence (Q4KMQ2 1-931 isoform Q4KMQ2-2): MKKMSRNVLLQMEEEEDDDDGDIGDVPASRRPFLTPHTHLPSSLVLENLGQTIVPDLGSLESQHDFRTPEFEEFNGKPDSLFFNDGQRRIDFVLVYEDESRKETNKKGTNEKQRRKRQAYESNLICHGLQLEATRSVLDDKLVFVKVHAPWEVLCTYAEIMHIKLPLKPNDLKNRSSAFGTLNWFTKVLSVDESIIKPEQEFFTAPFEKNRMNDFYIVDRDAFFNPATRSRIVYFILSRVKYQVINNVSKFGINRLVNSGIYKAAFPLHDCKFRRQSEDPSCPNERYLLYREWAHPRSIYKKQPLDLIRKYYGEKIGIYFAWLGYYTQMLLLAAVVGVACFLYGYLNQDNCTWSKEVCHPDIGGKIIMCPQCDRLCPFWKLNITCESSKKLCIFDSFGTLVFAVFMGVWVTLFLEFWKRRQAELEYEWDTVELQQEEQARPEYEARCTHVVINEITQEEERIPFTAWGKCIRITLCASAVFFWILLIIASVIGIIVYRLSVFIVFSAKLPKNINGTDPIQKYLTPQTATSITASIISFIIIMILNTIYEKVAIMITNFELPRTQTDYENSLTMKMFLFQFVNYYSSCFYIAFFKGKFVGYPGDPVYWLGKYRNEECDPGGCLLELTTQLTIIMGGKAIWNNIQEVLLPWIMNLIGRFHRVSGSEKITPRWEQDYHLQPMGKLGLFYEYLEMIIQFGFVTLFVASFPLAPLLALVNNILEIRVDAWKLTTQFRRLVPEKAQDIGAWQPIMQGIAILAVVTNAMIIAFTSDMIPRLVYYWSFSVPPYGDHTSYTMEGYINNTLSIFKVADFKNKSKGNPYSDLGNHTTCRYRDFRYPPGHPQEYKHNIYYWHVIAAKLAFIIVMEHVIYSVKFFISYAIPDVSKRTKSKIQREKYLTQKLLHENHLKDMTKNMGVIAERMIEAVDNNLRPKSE
Outline: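 FRT cells stably expressing human ANO6 were pretreated with compound (1% DMSO) for 10 min, then stimulated with 10 μM ionomycin for 10 min. Surface phosphatidylserine was stained with 500 nM Lact-C2-GFP and quantified by imaging. Inhibition was scaled between unstimulated (100%) and ionomycin-only (0%) controls, averaged over triplicates.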

[2] = system: citrated human blood; assay: NATEM (ROTEM thromboelastometry, blood clot formation); details: 100 μM, 2% v/v DMSO, 15 min preincubation
Description: (§1) 1. Materials and Instruments
Star-TEM reagent (TEM International GmbH, cat. #000503-01), Dimethyl sulfoxide (Sigma-Aldrich, cat. #D2438), Cleancle normal saline (JW Pharm), and ROTEM® delta system (TEM International GmbH).
Human blood research was experimented after approval from the Yonsei University Institutional Review Board (IRB) in accordance with the Life Ethics and Safety Act.
Blood samples for NATEM were kept at room temperature, and all NATEM analyses were performed at 37° C. NATEM was carried out using 300 μL of citrated human blood preincubating with test compounds (100 μM, 2% v/v DMSO) for 15 minutes in cuvette and […] with Star-TEM reagent according to the manufacturer's manual (ROTEM; Tem International GmbH, Munich, Germany). After addition of the star-TEM reagent, cuvettes were measured by ROTEM® delta system. Blood clot formation was evaluated.
The obtained parameters were time to clot initiation (Clotting Time, CT), time to clot formation, α angle for clot growth kinetics (initial rate of fibrin polymerization), amplitude (firmness) at 10 minutes, maximum clot firmness, and maximum lysis.

[3] = system: platelet-rich plasma (PRP); assay: Recalcification time of rat platelet-rich plasma; details: 30 μM, vs 2% DMSO control
Description: Example 5: Recalcification Time
as §1
Isoflurane (Hana Pharm, cat. #9008), Isotonic Sodium Chloride Injection (Daihan Pharm, cat. #331), Citrate-dextrose solution (Sigma-Aldrich, cat. #C3821), Calcium chloride solution (Sigma-Aldrich, cat. #21115), 22G Syringe 10 mL (Koreavaccine), Dimethyl sulfoxide (Sigma-Aldrich, cat. #D5879), Apixaban (AK scientific, cat. #X1060), 96 Well Cell Culture Plates (SPL Life Sciences, cat. #30096), Synergy H4 Hybrid Microplate Reader (BioTek), Combi R515 Multi-purpose Centrifuge (Hanil Scientific), BS-06 Shaking & Heating Baths (JEIO TECH), and PST-60HL-4 Plate Shaker-Thermostat (Bio-San)
Seven-week-old male SD Rat (ORIENT BIO.) were maintained under controlled conditions of temperature (22±2° C.) and 12-h light/12-h dark cycle. Rats were housed in the pathogen-free facility of the Laboratory Animal Research Center in Ildong Pharmaceutical Co. Ltd. All procedures on animals were conducted in accordance with the relevant national regulatory guidelines and individual experiments approved by the Ildong Pharmaceutical Co. Ltd., Institutional Animal Care and Use Committee (IACUC) (approval No.: A2106-3, 2108-4).
The ability of test compounds to interfere with plasma coagulation, in the presence of platelets, was analyzing by measuring the recalcification time of rat plasma. The blood of animals was collected into 15 mL tubes containing Citrate-dextrose solution (9:1 v/v) before performing the assays. For recalcification time, platelet-rich plasma (PRP) samples were obtained by centrifugation at 360×g for 10 minutes. And the PRP were preincubated for 5 minutes (37° C.). In a 96 well microplate, test compounds (2 μL) were treated in 98 μL of platelet rich plasma. After mixing with a pipette, it was incubated at 37° C. for 15 minutes. The reaction was started by addition of 200 μL of pre-warmed CaCl2) (16 mM). Immediately, put the microplate in a microplate reader and the signals were measured by the following steps.
(1) 405 nm wavelength absorbance signals were recorded in every 10 seconds at 37° C.
(2) Basal absorbance signals were recorded for 0 second.
The signal variance of each of the test compounds was obtained by the following step.
(1) Background signals (t=O) were subtracted from recording values, and the resulting values were converted to change values. The values at 0 second were set to be zero.
The retardation time of test compound were calculated by the following formula:
Retardation time (sec)=[log EC50 (test sample)−log EC50 (DMSO control)]
As described above, a DMSO control group is a group to which 2% DMSO was treated.
The assay result is shown in Table 5, where compounds (30 μM) having less than 20 seconds of retardation time are marked by ‘C’; the compounds (30 μM) having retardation time of 20 seconds or more to less than 50 seconds are marked by ‘B’; and the compounds (30 μM) having retardation time of 50 seconds or more are marked by ‘A’.

## O=C(N[C@@H]1C[C@H]1c1ccccc1)c1cccc(Nc2ccc(-c3ccncn3)cc2)c1 [Compound 174, N-((1R,2S)-2-phenylcyclopropyl)-3-((4-(pyrimidin-4-yl)phenyl)amino)benzamide]
[1]
  inhibition at 0.1 µM: ≥ 60%
[2]
  A10, amplitude (firmness) at 10 minutes: 45 mm
  CFT, clot formation time: 180 s
  CT, clotting time: 665 s
  MCF, maximum clot firmness: 56 mm
  ML, maximum lysis: 2%
  α, α-angle: 57 °
[3]
  Inhibition Level (retardation time, recalcification time): B (the compounds (30 μM) having retardation time of 20 seconds or more to less than 50 seconds)

## O=C(N[C@@H]1C[C@H]1c1ccccc1)c1cccc(Nc2ccc(-c3ccccn3)cc2)c1 [Compound 155, N-((1R,2S)-2-phenylcyclopropyl)-3-((4-(pyridin-2-yl)phenyl)amino)benzamide]
[1]
  inhibition at 0.1 µM: ≥ 60%
  inhibition at 1 µM: ≥ 60%
[2]
  A10, amplitude (firmness) at 10 minutes: 45 mm
  CFT, clot formation time: 168 s
  CT, clotting time: 616 s
  MCF, maximum clot firmness: 57 mm
  ML, maximum lysis: 2%
  α, α-angle: 59 °
[3]
  Inhibition Level (retardation time, recalcification time): A (the compounds (30 μM) having retardation time of 50 seconds or more)

## O=C(N[C@@H]1C[C@H]1c1ccccc1)c1cccc(Nc2ccc(-c3cccnc3)cc2)c1 [Compound 161, N-((1R,2S)-2-phenylcyclopropyl)-3-((4-(pyridin-3-yl)phenyl)amino)benzamide]
[1]
  inhibition at 0.1 µM: ≥ 60%
  inhibition at 1 µM: ≥ 60%
[3]
  Inhibition Level (retardation time, recalcification time): A (the compounds (30 μM) having retardation time of 50 seconds or more)
